Data on two compounds can be found in patent US20220313690A1, “SYNERGISTIC EFFECT OF EYP001 AND IFN FOR THE TREATMENT OF HBV INFECTION” (ENYO PHARMA, priority 2019, published 2022).

Each structure is given as a SMILES string.

One data set relates to HBV pgRNA. Put plainly: HBV pgRNA change from baseline after 4-week treatment course in chronically infected HBV patients. Format: in vivo, human. The following applies: 4 weeks. As for the experimental part: FIG. 1: HBV pgRNA (log 10 copies/mL) changes from baseline after a 4 week anti-HBV treatment course of FXR agonist EYP001a or placebo in combination with interferon in chronically infected previously untreated HBV patients. PBO: placebo. peg-IFN: pegylated interferon alpha2a. 150 BID: 150 mg twice daily. 300 QD: 300 mg once daily. pgRNA: pregenomic ribonucleic acid.
(§1) HBV chronically infected patients (male (n=39) and female (n=34)) underwent a 4-week treatment course as either daily oral FXR agonist EYP001a monotherapy or placebo or entecavir (ETV) in Part A of the study (n=48) or in combination with interferon (n=23, weekly sub-cutaneous injections of pegylated IFNα2a, PEG-IFN) in Part B. Patient characteristics were: mean age of 39.7 years (range: 19-63); 6 of 73 were HBeAg-positive; 70% treatment naïve; mean baselines HBV DNA 4.2 (±1.5 SD) log 10 IU/mL, HBsAg 3.5 (±0.8 SD) log 10 IU/mL, and genotypes A (25), B (8), C (10), D (7) and E (4).

A further data set deals with HBcrAg. Put plainly: HBcrAg change from baseline after 4-week treatment course in chronically infected HBV patients. The data set is classed as in vivo, human. The following applies: 4 weeks.
Excerpt: PBO: placebo. peg-IFN: pegylated interferon alpha2a. HBcrAg: hepatitis B core-related antigen.
as §1

The subject of the next data set is HBsAg. The data set is classed as in vivo, human. The following applies: 400 mg QD EYP001, end of treatment day 29, p<0.05.
Excerpt: as §1

The next data set relates to HBV replication. Put plainly: Synergistic effect of combined treatment on HBV replication markers (pgRNA and HBcrAg) in patients. The following applies: same dose, same period of 4 weeks, monotherapy. The data set is classed as in vivo, human.
Excerpt: By “a synergistic effect” is intended to refer to an effect for decreasing the HBV replication which is more than the sum of the effects of each molecule alone. HBV replication can be assessed by determining surface HBV antigen (HBsAg), HBeAg, HBV core related antigen (HBcrAg), HBV DNA, HBV pre-genomic RNA, HBV pre-core RNA and/or HBV cccDNA. More particularly, the effect is observed on the pre-genomic RNA (HBV pgRNA) and/or on the hepatitis B core related antigen (HBcrAg).
as §1, with “(4). FXR engagement with all EYP001 doses led to decreases in C4 and increases in FGF19 (data not shown).” for “(4).”
At end of treatment on day 29, 400 mg QD EYP001 decrease the mean HBsAg by −0.1 log 10 IU/mL (p<0.05). […]

For another data set, the target named is T1, FXR (Homo sapiens, UniProt Q96RI1).
T1 construct: FXR engagement with all EYP001 doses led to decreases in C4 and increases in FGF19; from tissue; host or cells: endogenous FXR in the tissues of treated HBV patients (in vivo clinical study)
T1 sequence (Q96RI1 1-486): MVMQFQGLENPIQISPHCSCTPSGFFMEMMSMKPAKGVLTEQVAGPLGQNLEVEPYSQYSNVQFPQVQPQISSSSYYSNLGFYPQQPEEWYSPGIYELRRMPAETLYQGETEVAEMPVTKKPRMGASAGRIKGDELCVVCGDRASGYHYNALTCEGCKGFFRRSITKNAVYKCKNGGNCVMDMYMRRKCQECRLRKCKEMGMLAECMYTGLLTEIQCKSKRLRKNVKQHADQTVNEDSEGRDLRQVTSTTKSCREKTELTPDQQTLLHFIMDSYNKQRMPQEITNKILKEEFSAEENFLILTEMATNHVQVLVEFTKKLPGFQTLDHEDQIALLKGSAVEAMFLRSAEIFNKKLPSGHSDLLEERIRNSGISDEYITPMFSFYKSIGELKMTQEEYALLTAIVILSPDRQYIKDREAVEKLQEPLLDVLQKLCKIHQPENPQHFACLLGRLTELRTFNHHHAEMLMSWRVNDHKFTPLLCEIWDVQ
Put plainly: FXR engagement markers (C4, FGF19) in HBV patients. The following applies: all EYP001 doses; data not shown. Format: in vivo.
Excerpt: as §1

The conditions of data set [1]: human, in vivo, 4 weeks. How it is done: Therefore, in a particular aspect, EYP001 is administered once a day.
A further data set has as its system HBV. The following applies: chronic hepatitis B patients; Erken et al 2018; cited from earlier work.
The mark [2] stands for this setting: ETV open-label 0.5 mg/day, end of treatment day 29.
The mark [3] stands for this setting: EYP001a 1 × 100 mg/day monotherapy, day 29.
Where [4] appears, read: EYP001a 1 × 200 mg/day monotherapy, day 29.
[5] abbreviates: EYP001a 1 × 400 mg/day monotherapy, day 29.
Where [6] appears, read: EYP001a 2 × 200 mg/day monotherapy, day 29.

`C=C1[C@H](CO)[C@@H](O)C[C@@H]1n1cnc2c(=O)[nH]c(N)nc21` [ETV, entecavir, reference compound]: the HBVpgRNA mean change in the data set on HBV pgRNA (setting [2]) is −0.3 Log10 Copies mL. In the data set on HBcrAg (setting [2]), the HBcrAg mean change stood at 0.03 Log10 IU mL.

On to `O=C(O)c1cc2c(Cl)c(N3CCN(S(=O)(=O)c4c(Cl)cccc4Cl)CC3)ccc2o1` [EYP001], for which the HBVpgRNA mean change is 0.5 Log10 Copies mL in the data set on HBV pgRNA (setting [3]), 0.4 Log10 Copies mL in the data set on HBV pgRNA (setting [4]), 0.2 Log10 Copies mL in the data set on HBV pgRNA (setting [5]) and −0.1 Log10 Copies mL in the data set on HBV pgRNA (setting [6]). Further, the HBcrAg mean change is recorded as −0.3 Log10 IU mL in the data set with HBcrAg (setting [3]), 0.2 Log10 IU mL with HBcrAg (setting [4]), 0.02 Log10 IU mL with HBcrAg (setting [5]) and 1.2 Log10 IU mL with HBcrAg (setting [6]). For the same compound, in the data set on HBsAg, the “mean HBsAg decrease” value is on record as −0.1 log 10 IU/mL. Further, the “effect when used alone” value in the data set on HBV replication is recorded as “do not show a significant effect”. Moreover, the “change in C4” value at FXR was “decreases”. For the same compound, the “change in FGF19” value at FXR is recorded as “increases”. In data set [1], the “pruritus, once a day versus twice a day” value is “fewer pruritus occurs when EYP001 is administered once a day”. Moreover, the HBV viral load result in the data set with HBV is given as “reduces HBV viral load”.
